Marks after values point to notes of the source that are not given here.
What was measured:
Format in all cases: cell-based, human
[1] = test system: osteonectin; experiment: Western blot of osteonectin expression after exposure to ASOs; conditions: for osteonectin expression in relation to untreated control (100%): single exposure, lipofectamine, 10 μM
[2] = test system: bone sialoprotein II; experiment: Western blot of bone sialoprotein II expression after exposure to ASOs; conditions: 10 μM
[3] = test system: MDA-MB-231 breast cancer cells; experiment: Clonogenicity assay (colony formation); conditions: for inhibition of colony formation (colony growth inhibition): single exposure
Method: For determining the response of MDA-MB-231 colony formation to exposure with antisense oligonucleotides and erucylphospho-NNN-trimethylpropanolamine (ErPC3) the following procedure was used. MDA-MB-231 cells were treated for various periods of time (see below), harvested and counted. Cells (5000) were then transferred into semi-solid medium containing 0.8t RPMI-methylcellulose and 30% FBS. Cells were plated onto 3.5 cm Petri-dishes (1 ml/dish) (NUNC, Wiesbaden, Germany) and usual cell culture conditions (37° C., 5% CO2 in humidified air) were applied. Colony formation (clusters of 30 or more cells) was visualized by staining with 3-[4,5-dimethylthiazol-2-yl]-2,5-diphenyltetrazolium-bromide (MTT; Serva, Heidelberg, Germany) and the resulting dark blue colonies were scored by an inverted microscope after 5-7 days. At least three dishes per treatment protocol were used.
Pending on the duration of treatment, 1×10^5-3×10^5 cells were transferred onto 6 well plates (Nunc, Wiesbaden, Germany) and grown for 24 h. For transfection, ASO stock solutions were prepared in medium without FBS. According to the protocol of the manufacturer, the respective ASO stock solution was mixed with lipofectamine to allow ASO-liposome complexes to form. To 200 μl medium containing ASO quantities resulting in 10 μM (Western blot and in vivo model) and in 5, 10, or 20 μM (clonogenicity assay) final ASO-concentrations, an equal volume of medium without FBS was added containing 5, 10, or 20 μl lipofectamine, respectively. In addition to the ASO treatment, a NSO control (20 μM final concentration with 20 μl lipofectamine) and a lipofectamine control (20 μl) were used. […] After 12 h the medium was changed, and cells were further grown for 48-72 h. In the case of a sequential combination treatment this first cycle was repeated with the respective combination partner.
The alkylphosphocholine ErPC3 was synthesized and provided by Prof. H. Eibl (MPI of Biophysical Chemistry, Göttingen, FRG). For treating MDA-MB-231 cells, ErPC3 which was kept as stock solution in ethanol and PBS (10 mM; ratio of diluents 1:1; V:V), was diluted in PBS resulting in final concentrations of 10, 14, and 20 μM. The medium containing ErPC3 was changed after 24 h in all experiments and the cells were further grown for 48-72 h without ErPC3 (for details of sequential exposure see below).
Sequential combination treatment consisted of two or three treatment cycles. The two cycle treatment started either with the ASO and was followed by ErPC3 or was performed with the reverse sequence. The three cycle treatment started either with two cycles of ASO followed by ErPC3 or an initial exposure to ErPC3 was followed by two cycles with an ASO.
Colony counts are presented as mean with corresponding standard deviation. For comparison of incidences between treatment groups the x^2 test was used and for comparison of the lesion sizes the Kruskal-Wallis test was applied. P values≦0.05 were considered significant. Predicted theoretical values of combinations were calculated according to the equation: C=a×b/100, where a and b are colony counts in percent of untreated control obtained in response to single agents. For each concentration applied theoretical values were calculated and compared with the real value of the combination. In addition, isobologram and multiple drug effect analysis was examined by a suitable program (CalcuSyn, Biosoft, Ferguson, USA) to study the nature of the interaction observed. For this purpose, the dose-effect curve for each drug alone was determined based on the experimental observations using the median-effect principle; the combination index (CI) for each combination was then calculated according to the following equation:
CI=(D)1/(Dx)1+(D)2/(Dx)2+(D1)×(D2)/(Dx)1×(Dx)2
where (D)1 and (D)2 are the doses of drug 1 and drug 2 that have x effect when used in combination and (Dx)1 and (Dx)2 are the doses of drug 1 and drug 2 that have the same x effect when used alone. […]

[4] = MDA-MB231^F (growing without FBS)
[5] = MDA-MB231, single exposure, electroporation
[6] = MDA-MB231, single exposure, lipofectamine
[7] = MDA-MB231^F (growing without FBS), single exposure, lipofectamine
[8] = MDA-MB435s, single exposure, lipofectamine
[9] = MDA-MB231, twofold exposure, lipofectamine

Row | Compound | osteonectin expression in relation to untreated control (100%) ([1]; MDA-MB231) | osteonectin expression in relation to untreated control (100%) [1, 4] | osteonectin expression in relation to untreated control (100%) ([1]; MDA-MB435s) | bone sialoprotein II expression in relation to untreated control (100%) [2, 5] | bone sialoprotein II expression in relation to untreated control (100%) [2, 6] | bone sialoprotein II expression in relation to untreated control (100%) [2, 7] | bone sialoprotein II expression in relation to untreated control (100%) [2, 8] | further results
1 | 5′- TGTACTTGTCATTGTCCAGG-3′ (antisense TGTACTTGTCATTGTCCAGG; all phosphorothioate, sugars by position and methylation of C not given here) [ASO-ON-7] | 50% | 32% | 64% | – | – | – | – | –
2 | 5′-ACTGGTGGTGGTAGTAATTC-3′ (antisense ACTGGTGGTGGTAGTAATTC; all phosphorothioate, sugars by position and methylation of C not given here) [ASO-BSPII-9] | – | – | – | 46% | 35% | 84% | 49% | –
3 | 5′-AGATCCAGGCCCTCATGGTG -3′ (antisense AGATCCAGGCCCTCATGGTG; all phosphorothioate, sugars by position and methylation of C not given here) [ASO-ON-1] | 39^3) % | 44% | 46% | – | – | – | – | –
4 | 5′-AGGTCACAGGTCTCGAAAAA-3′ (antisense AGGTCACAGGTCTCGAAAAA; all phosphorothioate, sugars by position and methylation of C not given here) [ASO-ON-6] | 52% | 44% | 56% | – | – | – | – | –
5 | 5′-ATGCGCAGGGGGAATTCGGT (antisense ATGCGCAGGGGGAATTCGGT; all phosphorothioate, sugars by position and methylation of C not given here) [ASO-ON-4] | 50% | 31% | 62% | – | – | – | – | –
6 | 5′-ATGTTATAGTTCTTCTCGAA-3′ [ASO-ON-5] | 30% | 22% | 27% | – | – | – | – | decrease of osteonectin ([1]; MDA-MB-231 cells): 70%
7 | 5′-ATTCTTCATTGTTTTCTCCT-3 (antisense ATTCTTCATTGTTTTCTCCT; all phosphorothioate, sugars by position and methylation of C not given here) [ASO-BSPII-4] | – | – | – | 55% | 73% | 109% | 26% | –
8 | 5′-ATTTTGGTGATTGCTTCCTC-3′ (antisense ATTTTGGTGATTGCTTCCTC; all phosphorothioate, sugars by position and methylation of C not given here) [ASO-BSPII-2] | – | – | – | 94% | 38% | 94% | 26% | –
9 | 5′-CTGCCTTCCGGTCTCTGTGG-3′ (antisense CTGCCTTCCGGTCTCTGTGG; all phosphorothioate, sugars by position and methylation of C not given here) [ASO-BSPII-8] | – | – | – | 34% | 62% | 101% | 32% | bone sialoprotein II expression in relation to untreated control (100%) [2, 9]: 25%
10 | 5′-CTTCATCACTTTCCTTCTCT-3′ (antisense CTTCATCACTTTCCTTCTCT; all phosphorothioate, sugars by position and methylation of C not given here) [ASO-BSPII-5] | – | – | – | 63% | 27% | 101% | 41% | bone sialoprotein II expression in relation to untreated control (100%) [2, 9]: 46%
11 | 5′-CTTCATTGTTTTCTCCTTCA-3′ (antisense CTTCATTGTTTTCTCCTTCA; all phosphorothioate, sugars by position and methylation of C not given here) [ASO-BSPII-3] | – | – | – | 44% | 97% | 93% | 22% | –
12 | 5′-TCACTGGTGGTGGTAGTAAT-3′ (antisense TCACTGGTGGTGGTAGTAAT; all phosphorothioate, sugars by position and methylation of C not given here) [ASO-BSPII-10] | – | – | – | 40% | 33% | 30% | 39% | –
13 | 5′-TGATTGCTTCCTCTGGCAGT-3′ (antisense TGATTGCTTCCTCTGGCAGT; all phosphorothioate, sugars by position and methylation of C not given here) [ASO-BSPII-1] | – | – | – | 78% | 45% | 58% | 16% | bone sialoprotein II expression in relation to untreated control (100%) [2, 9]: 19^2) %
14 | 5′-TTCCGGTCTCTGTGGTGTCT-3′ [ASO-BSPII-7] | – | – | – | 25% | 58% | 37% | 51% | bone sialoprotein II expression in relation to untreated control (100%) [2, 9]: 22%
15 | CCCCCCCC/C=C\CCCCCCCCCCCCOP(=O)([O-])OCCC[N+](C)(C)C [ErPC3, Erucylphospho-NNN-trimethylpropanolamine, reference compound] | – | – | – | – | – | – | – | % Control ([3]; Exp. III a, 14 μM): 52%; Mean colony no. ([3]; Exp. III a, 14 μM, control 456): 239^5); % Control ([3]; Experiment I, single treatment, 10 μM): 89%; Mean colony no. ([3]; Experiment I, single treatment, 10 μM, control 778): 691^8); % Control ([3]; Experiment I, single treatment, 14 μM): 55%; Mean colony no. ([3]; Experiment I, single treatment, 14 μM, control 778): 425^7); % Control ([3]; Experiment I, single treatment, 20 μM): 22%; Mean colony no. ([3]; Experiment I, single treatment, 20 μM, control 778): 169; % Control ([3]; Experiment II, single treatment, 10 μM): 88%; Mean colony no. ([3]; Experiment II, single treatment, 10 μM, control 705): 621^8); % Control ([3]; Experiment II, single treatment, 14 μM): 55%; Mean colony no. ([3]; Experiment II, single treatment, 14 μM, control 705): 385^7); % Control ([3]; Experiment II, single treatment, 20 μM): 25%; Mean colony no. ([3]; Experiment II, single treatment, 20 μM, control 705): 173; % Control ([3]; Experiment III b, 14 μM): 59%; Mean colony no. ([3]; Experiment III b, 14 μM, control 517): 311^5); inhibition of colony formation (colony growth inhibition) ([3]; 10 μM): 11%; inhibition of colony formation (colony growth inhibition) ([3]; 14 μM): 45%; inhibition of colony formation (colony growth inhibition) ([3]; 20 μM): 78%

From patent publication US20090017103A1, “Antisense oligonucleotides for prevention of metastasis formation of cancer cells” (priority 2003, published 2009)
